According to patent US10570122B2, “Compounds with anti-tumoral activity” (AB Science, priority 2015, dated 2020):

Columns and labels:
A549 = assay: CellTiter-Blue cell-based survival/proliferation assay, A549; conditions: Homo sapiens; A549 lung tumor cell line, 48 h
Summary of the method: (§1)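 Tenfold compound dilutions (0–10 μM) were added to 1·10^4 cells/well. Plates incubated 48 h at 37 °C. CellTiter-Blue reduction (4 h, 37 °C) was read as fluorescence at 590 nm, background-corrected with a cell-free blank.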

H1299 = assay: CellTiter-Blue cell-based survival/proliferation assay, H1299; conditions: Homo sapiens, NCI-H1299; H1299 lung tumor cell line, 48 h
Summary of the method: as §1

HEP2 = assay: CellTiter-Blue cell-based survival/proliferation assay, HEP2; conditions: Homo sapiens, HEp-2; HEP2 head & neck tumor cell line, 48 h
Summary of the method: as §1

AGS = assay: CellTiter-Blue cell-based survival/proliferation assay, AGS; conditions: Homo sapiens; AGS stomach tumor cell line, 48 h
Summary of the method: as §1

DU145 = assay: CellTiter-Blue cell-based survival/proliferation assay, DU145; conditions: Homo sapiens, DU-145; DU145 prostate tumor cell line, 48 h
Summary of the method: as §1

CALU6 = assay: CellTiter-Blue cell-based survival/proliferation assay, CALU6; conditions: Homo sapiens, Calu-6; CALU6 lung tumor cell line, 48 h
Summary of the method: as §1

SW579 = assay: CellTiter-Blue cell-based survival/proliferation assay, SW579; conditions: Homo sapiens; SW579 head & neck tumor cell line, 48 h
Summary of the method: as §1

MESSA = assay: CellTiter-Blue cell-based survival/proliferation assay, MESSA; conditions: Homo sapiens, MES-SA; MESSA ovary tumor cell line, 48 h
Summary of the method: as §1

A4513 = assay: CellTiter-Blue cell-based survival/proliferation assay, A4513; conditions: Homo sapiens; A4513 Ewing cell line, 48 h
Protocol: (§2) Cell-Based Proliferation Screening of Compounds
(§3) CellTiter-Blue cell-based survival/proliferation assay (Promega G8080) was performed on tumor cell lines. A total of 1·10^4 cells/well/50 μl were seeded in a 96-wells plate. Treatment was initiated by addition of a 2× drug solution of 1/10 serial dilutions ranging from 0 to 10 μM. Cells were grown for 48 h at 37° C. and then incubated with 10 μl/well of Promega CellTiter-Bleue reagent for 4 h at 37° C. The amount of resorufin dye formed was quantified by its fluorescence emission at 590 nm using a scanning multiwell spectrophotometer (OPTIMA, BMG labtech, France). A blank well without cells was used as a background control for the spectrophotometer.

MDAMB231 = assay: CellTiter-Blue cell-based survival/proliferation assay, MDAMB231; conditions: Homo sapiens, MDA-MB-231; MDAMB231 breast tumor cell line, 48 h
Summary of the method: as §1

KARPAS299 = assay: CellTiter-Blue cell-based survival/proliferation assay, KARPAS299; conditions: Homo sapiens, KARPAS-299, Lymphoma cell line KARPAS299, 48 h, read-out: Anti-tumoral activity (measured IC50) KARPAS299
Summary of the method: as §1

OPM2 = assay: CellTiter-Blue cell-based survival/proliferation assay, OPM2; conditions: Homo sapiens, OPM-2, Myeloma cell line OPM2, 48 h, read-out: Anti-tumoral activity (measured IC50) OPM2
Summary of the method: as §1

DLD1 = assay: CellTiter-Blue cell-based survival/proliferation assay, DLD1; conditions: Homo sapiens, DLD-1; DLD_1 colorectal tumor cell line, 48 h
Summary of the method: as §1

HCT116 = assay: CellTiter-Blue cell-based survival/proliferation assay, HCT116; conditions: Homo sapiens, HCT-116; HCT116 colorectal tumor cell line, 48 h
Summary of the method: as §1

HGC27 = assay: CellTiter-Blue cell-based survival/proliferation assay, HGC27; conditions: Homo sapiens, HGC-27; HGC27 stomach tumor cell line, 48 h
Summary of the method: as §1

BT20 = assay: CellTiter-Blue cell-based survival/proliferation assay, BT20; conditions: Homo sapiens, BT-20; BT20 breast tumor cell line, 48 h
Summary of the method: as §1

HL60 = assay: CellTiter-Blue cell-based survival/proliferation assay, HL60; conditions: Homo sapiens, HL-60, Leukemia cell line HL60, 48 h, read-out: Anti-tumoral activity (measured IC50) HL60
Summary of the method: as §1

A498 = assay: CellTiter-Blue cell-based survival/proliferation assay, A498; conditions: Homo sapiens; A498 kidney tumor cell line, 48 h
Summary of the method: as §1

U118 = assay: CellTiter-Blue cell-based survival/proliferation assay, U118; conditions: Homo sapiens; U118 glioblastoma cell line, 48 h
Protocol: as §2, §3

HUT78 = assay: CellTiter-Blue cell-based survival/proliferation assay, HUT78; conditions: Homo sapiens, Lymphoma cell line HUT78, 48 h, read-out: Anti-tumoral activity (measured IC50) HUT78
Summary of the method: as §1

PLCPRF5 = assay: CellTiter-Blue cell-based survival/proliferation assay, PLCPRF5; conditions: Homo sapiens, PLC-PRF-5; PLC_PRF5 liver tumor cell line, 48 h
Summary of the method: as §1

U87MG = assay: CellTiter-Blue cell-based survival/proliferation assay, U87MG; conditions: Homo sapiens, U-87 MG; U87_MG glioblastoma cell line, 48 h
Protocol: as §2, §3

CLS354 = assay: CellTiter-Blue cell-based survival/proliferation assay, CLS354; conditions: Homo sapiens, CLS-354; CLS354_4 head & neck tumor cell line, 48 h
Summary of the method: as §1

U2OS = assay: CellTiter-Blue cell-based survival/proliferation assay, U2OS; conditions: Homo sapiens; U2OS osteosarcoma cell line, 48 h
Protocol: as §2, §3

A375 = assay: CellTiter-Blue cell-based survival/proliferation assay, A375; conditions: Homo sapiens, A-375; A375 melanoma cell line, 48 h
Protocol: as §2, §3

ACHN = assay: CellTiter-Blue cell-based survival/proliferation assay, ACHN; conditions: Homo sapiens; ACHN kidney tumor cell line, 48 h
Summary of the method: as §1

PC3 = assay: CellTiter-Blue cell-based survival/proliferation assay, PC3; conditions: Homo sapiens, PC-3; PC3 prostate tumor cell line, 48 h
Summary of the method: as §1

TOV112D = assay: CellTiter-Blue cell-based survival/proliferation assay, TOV112D; conditions: Homo sapiens; TOV112D ovary tumor cell line, 48 h
Summary of the method: as §1

MELWO = assay: CellTiter-Blue cell-based survival/proliferation assay, MELWO; conditions: Homo sapiens; MEL_WO melanoma cell line, 48 h
Protocol: as §2, §3

PANC1 = assay: CellTiter-Blue cell-based survival/proliferation assay, PANC1; conditions: Homo sapiens, PANC-1; PANC_1 pancreas tumor cell line, 48 h
Summary of the method: as §1

REC1 = assay: CellTiter-Blue cell-based survival/proliferation assay, REC1; conditions: Homo sapiens, Lymphoma cell line REC1, 48 h, read-out: Anti-tumoral activity (measured IC50) REC1
Summary of the method: as §1

HEPG2 = assay: CellTiter-Blue cell-based survival/proliferation assay, HEPG2; conditions: Homo sapiens; HEPG2 liver tumor cell line, 48 h
Summary of the method: as §1

BXPC3 = assay: CellTiter-Blue cell-based survival/proliferation assay, BXPC3; conditions: Homo sapiens, BXPC-3; BXPC3 pancreas tumor cell line, 48 h
Summary of the method: as §1

Compound | IC50 (A549) [nM] | IC50 (H1299) [nM] | IC50 (HEP2) [nM] | IC50 (AGS) [nM] | IC50 (DU145) [nM] | IC50 (CALU6) [nM] | IC50 (SW579) [nM] | IC50 (MESSA) [nM] | IC50 (A4513) [nM] | IC50 (MDAMB231) [nM] | IC50 (KARPAS299) [nM] | IC50 (OPM2) [nM] | IC50 (DLD1) [nM] | IC50 (HCT116) [nM] | IC50 (HGC27) [nM] | IC50 (BT20) [nM] | IC50 (HL60) [nM] | IC50 (A498) [nM] | IC50 (U118) [nM] | IC50 (HUT78) [nM] | further results
CCOCc1ccc(C)c(Nc2ncc(-c3ccc(-n4cccn4)nc3)o2)c1 [Example 007, (5-Ethoxymethyl-2-methyl-phenyl)-[5-(6-pyrazol-1-yl-pyridin-3-yl)-oxazol-2-yl]-amine] | > 1000 | > 1000 | 100 to 500 | ≤ 100 | > 1000 | > 1000 | > 1000 | > 1000 | 100 to 500 | > 1000 | ≤ 100 | 100 to 500 | 500 to 1000 | > 1000 | 100 to 500 | > 1000 | 100 to 500 | > 1000 | > 1000 | ≤ 100 | IC50 (PLCPRF5): > 1000 nM; IC50 (U87MG): > 1000 nM; IC50 (CLS354): ≤ 100 nM; IC50 (U2OS): > 1000 nM; IC50 (A375): ≤ 100 nM; IC50 (ACHN): 100 to 500 nM; IC50 (PC3): 100 to 500 nM; IC50 (TOV112D): ≤ 100 nM; IC50 (MELWO): > 1000 nM; IC50 (PANC1): > 1000 nM; IC50 (REC1): ≤ 100 nM; IC50 (HEPG2): > 1000 nM; IC50 (BXPC3): > 1000 nM
CCOCc1ccc(C)c(Nc2nc(-c3ccc(N4CCNC4=O)cc3)ns2)c1 [Example 010, 1-{4-[5-(5-Ethoxymethyl-(2-methyl-phenylamino))-[1,2,4]thiadiazol-3-yl]-phenyl}-imidazolidin-2-one] | > 1000 | 100 to 500 | ≤ 100 | > 1000 | > 1000 | 500 to 1000 | ≤ 100 | > 1000 | > 1000 | > 1000 | ≤ 100 | ≤ 100 | > 1000 | ≤ 100 | ≤ 100 | > 1000 | ≤ 100 | > 1000 | > 1000 | ≤ 100 | IC50 (PLCPRF5): > 1000 nM; IC50 (U87MG): > 1000 nM; IC50 (CLS354): ≤ 100 nM; IC50 (U2OS): > 1000 nM; IC50 (A375): ≤ 100 nM; IC50 (ACHN): ≤ 100 nM; IC50 (PC3): ≤ 100 nM; IC50 (TOV112D): ≤ 100 nM; IC50 (MELWO): ≤ 100 nM; IC50 (PANC1): > 1000 nM; IC50 (REC1): ≤ 100 nM; IC50 (HEPG2): > 1000 nM; IC50 (BXPC3): > 1000 nM
COc1ccc(C)c(Nc2ncc(-c3ccc(-n4cccn4)cc3)s2)c1 [Example 011, (5-Methoxy-2-methyl-phenyl)-[5-(4-pyrazol-1-yl-phenyl)-thiazol-2-yl]-amine] | > 1000 | > 1000 | > 1000 | > 1000 | > 1000 | > 1000 | > 1000 | > 1000 | > 1000 | > 1000 | > 1000 | > 1000 | > 1000 | > 1000 | > 1000 | > 1000 | > 1000 | > 1000 | > 1000 | > 1000 | IC50 (PLCPRF5): > 1000 nM; IC50 (U87MG): > 1000 nM; IC50 (CLS354): > 1000 nM; IC50 (U2OS): > 1000 nM; IC50 (A375): > 1000 nM; IC50 (ACHN): > 1000 nM; IC50 (PC3): > 1000 nM; IC50 (TOV112D): > 1000 nM; IC50 (MELWO): > 1000 nM; IC50 (PANC1): > 1000 nM; IC50 (REC1): > 1000 nM; IC50 (HEPG2): > 1000 nM; IC50 (BXPC3): > 1000 nM
